Where “and” joins values, the source holds several entries; their conditions need not be identical. Equal values may be shown once. Read-outs that look alike come from different tables or passages of the source.
Tests used:
[1] = bolus IV 5 mpk, cited from earlier work; for Brain conc / Plasma conc: WO 03/074053 data converted to nM; for Brain-to-plasma Ratio: WO 03/074053 data
[2] = Plasma, brain and liver levels after oral gavage in C57BL/6 mice; type: in vivo, mouse; details: C57BL/6 mice; for Brain/Liver Ratio / Kp at 1 h / concentration at 1 h / concentration at 1 hr: 1 hr; for Kp at 1 h: brain and plasma
Description: Below, we first report the experimental detail for preparation and isolation of Compound III, and then the biological, in vivo data is described.

[3] = Plasma, brain and liver levels after bolus IV administration in nude mice
in vivo = details: nude, mouse, iv
[4] = mouse, in vivo, iv; for Brain-to-Liver Ratio: nude, 12 mg/kg
[5] = system: PrP T44 Tau transgenic mice; details: treatment for 3 months; cited from earlier work
[6] = system: paclitaxel-induced peripheral neuropathy; details: rats; cited from earlier work

CCC[C@H]1C(=O)C(C)(C)[C@@H](O)CC(=O)O[C@H](/C(C)=C/c2csc(C)n2)CC=C(C)CCC[C@H](C)[C@@H]1O (single isomer, unassigned) [Compound III, 4,8-dihydroxy-16-(1-methyl-2-(2-methyl-4-thiazolyl)-ethenyl)-1-oxa-7-(1-propyl)-5,5,9,13-tetramethyl-cyclohexadec-13-ene-2,6-dione]
Brain conc ([1]; 0.17 hr): 580 nM
Plasma conc ([1]; 0.17 hr): 1540 nM
Brain-to-plasma Ratio ([1]; 0.17 hr): 0.4
Brain conc ([1]; 0.67 hr): 1150 nM
Plasma conc ([1]; 0.67 hr): 580 nM
Brain-to-plasma Ratio ([1]; 0.67 hr): 2
Brain-to-plasma Ratio ([1]; […]): 1.3
brain retention ([2]; oral 10 and 35 mpk, no measureable brain levels at 24 h): poor brain retention
brain half life compared with epothilone D ([2]; oral 35 mpk, FIG. 9): significantly shorter than epothilone D
Brain/Liver Ratio ([2]; oral gavage 10 mpk): 0.1
Brain conc ([2]; oral gavage 10 mpk, 5 hr): (3.7 nM)
Brain conc ([2]; oral gavage 10 mpk, 7 hr): (3.7 nM)
Brain conc ([2]; oral gavage 10 mpk, 24 hr): (3.7 nM)
Plasma conc ([2]; oral gavage 10 mpk, 24 hr): (0.2 nM)
Brain/Liver Ratio ([2]; oral gavage 35 mpk): 0.4
Brain conc ([2]; oral gavage 35 mpk, 24 hr): <LLQ
Kp at 1 h ([2]; mouse, 10 mg/kg, oral gavage 10 mpk, read-out: Brain/Plasma Ratio): 0.8
Kp at 1 h ([2]; mouse, 35 mg/kg, oral gavage 35 mpk, read-out: Brain/Plasma Ratio): 2.3
concentration at 1 h ([2]; mouse, brain, 10 mg/kg, oral gavage 10 mpk, read-out: Brain conc): 0.0096 µM
concentration at 1 hr ([2]; mouse, brain, 35 mg/kg, oral gavage 35 mpk, read-out: Brain conc): 0.0677 µM
concentration at 5 hr ([2]; mouse, brain, 35 mg/kg, oral gavage 35 mpk, 5 hr, read-out: Brain conc): 0.0046 µM
Kp at 5 h ([2]; mouse, brain/plasma, 35 mg/kg, oral gavage 35 mpk, 5 hr, read-out: Brain/Plasma Ratio): 1.4
concentration at 1 h ([2]; mouse, plasma, 10 mg/kg, oral gavage 10 mpk, read-out: Plasma conc): 0.0123 µM
concentration at 5 hr ([2]; mouse, plasma, 10 mg/kg, oral gavage 10 mpk, 5 hr, read-out: Plasma conc): 0.0013 µM
concentration at 7 hr ([2]; mouse, plasma, 10 mg/kg, oral gavage 10 mpk, 7 hr, read-out: Plasma conc): 0.0012 µM
concentration at 1 hr ([2]; mouse, plasma, 35 mg/kg, oral gavage 35 mpk, read-out: Plasma conc): 0.0477 µM
concentration at 5 hr ([2]; mouse, plasma, 35 mg/kg, oral gavage 35 mpk, 5 hr, read-out: Plasma conc): 0.003 µM
concentration at 24 hr ([2]; mouse, plasma, 35 mg/kg, oral gavage 35 mpk, 24 hr, read-out: Plasma conc): 0.0007 µM

C/C(=C\c1csc(CN)n1)[C@@H]1C[C@@H]2O[C@]2(C)CCC[C@H](C)[C@H](O)[C@@H](C)C(=O)C(C)(C)[C@@H](O)CC(=O)O1 [Compound II]
Brain-to-Liver Ratio ([3]; bolus IV 1 mpk, 6 hr): 0.01
Brain-to-Liver Ratio ([3]; bolus IV 1 mpk, 24 hr): 0.02
brain levels relative to peripheral tissue (ratio of brain-to-liver compound levels) ([3]; bolus IV, particularly at later times): modest brain levels relative to peripheral tissue
concentration at 6 h ([3]; nude, mouse, in vivo, iv, 1 mg/kg, Brain conc, bolus IV 1 mpk, 6 hr): 0.0068 µM
concentration at 24 h ([3]; nude, mouse, in vivo, iv, 1 mg/kg, Brain conc, bolus IV 1 mpk, 24 hr): 0.0013 µM
Kp at 6 h ([3]; nude, mouse, in vivo, iv, 1 mg/kg, Brain-to-plasma Ratio, bolus IV 1 mpk, 6 hr): 2.1
Kp at 24 h ([3]; nude, mouse, in vivo, iv, 1 mg/kg, Brain-to-plasma Ratio, bolus IV 1 mpk, 24 hr): 1.2
concentration at 6 h ([3]; nude, mouse, in vivo, iv, 1 mg/kg, Plasma conc, bolus IV 1 mpk, 6 hr): 0.003 µM
concentration at 24 h ([3]; nude, mouse, in vivo, iv, 1 mg/kg, Plasma conc, bolus IV 1 mpk, 24 hr): 0.001 µM

C/C(=C\c1csc(C)n1)[C@@H]1C[C@@H]2O[C@]2(C)CCC[C@H](C)[C@H](O)[C@@H](C)C(=O)C(C)(C)[C@@H](O)CC(=O)N1 [Ixabepilone, (1S,3S,7S,10R,11S,12S,16R)-7,11-dihydroxy-8,8,10,12,16-pentamethyl-3-[(1E)-1-methyl-2-(2-methyl-4-thiazolyl)ethenyl]-17-oxa-4-azabicyclo[14.1.0]heptadecane-5,9-dione]
Kp at 1 h (in vivo; 12 mg/kg): 0.73
Kp at 2 h (in vivo; 12 mg/kg): 2.1
Kp at 6 h (in vivo; 12 mg/kg): 7
Kp at 24 h (in vivo; 12 mg/kg): 30
Kp at […] (in vivo; 12 mg/kg): 0.05 and 0.16
concentration at 1 h (in vivo; 12 mg/kg, Brain conc): 0.284 µM
concentration at 2 h (in vivo; 12 mg/kg, Brain conc): 0.36 µM
concentration at 6 h (in vivo; 12 mg/kg, Brain conc): 0.371 µM
concentration at 24 h (in vivo; 12 mg/kg, Brain conc): 0.236 µM
concentration at 1 h (in vivo; 12 mg/kg, Plasma conc): 0.39 µM
concentration at 2 h (in vivo; 12 mg/kg, Plasma conc): 0.171 µM
concentration at 6 h (in vivo; 12 mg/kg, Plasma conc): 0.053 µM
concentration at 24 h (in vivo; 12 mg/kg, Plasma conc): 0.008 µM
brain levels relative to peripheral tissue (ratio of brain-to-liver compound levels) [4]: modest brain levels relative to peripheral tissue
Brain-to-Liver Ratio ([4]; 1 h): 0.07
Brain-to-Liver Ratio ([4]; 2 h): 0.11
Brain-to-Liver Ratio ([4]; 6 h): 0.30
Brain-to-Liver Ratio ([4]; 24 h): 1.2

CC(=O)O[C@H]1C(=O)[C@@]2(C)[C@H]([C@H](OC(=O)c3ccccc3)[C@]3(O)C[C@H](OC(=O)[C@H](O)[C@@H](NC(=O)c4ccccc4)c4ccccc4)C(C)=C1C3(C)C)[C@]1(OC(C)=O)CO[C@@H]1C[C@@H]2O [Paclitaxel, paclitaxel]
Tau pathology (spheroids) [5]: unaffected
microtubule numbers and axonal transport in the ventral roots of the spinal cord [5]: increased microtubule numbers and axonal transport
motor dysfunction [5]: reduced motor dysfunction
concentration at 1 h (in vivo; 4 mg/kg, Brain conc): 0.047 µM
concentration at 6 h (in vivo; 4 mg/kg, Brain conc): 0.016 µM
concentration at 24 h (in vivo; 4 mg/kg, Brain conc): 0.015 µM
Kp at 1 h (in vivo; 4 mg/kg, Brain-to-plasma Ratio): 0.1
Kp at 6 h (in vivo; 4 mg/kg, Brain-to-plasma Ratio): 0.37
Kp at 24 h (in vivo; 4 mg/kg, Brain-to-plasma Ratio): 1.25
concentration at 1 h (in vivo; 4 mg/kg, Plasma conc): 0.447 µM
concentration at 6 h (in vivo; 4 mg/kg, Plasma conc): 0.043 µM
concentration at 24 h (in vivo; 4 mg/kg, Plasma conc): 0.012 µM
brain levels ([4]; 4 mg/kg): low

NAP: a peptide of sequence NAPVSIPQ
protection against paclitaxel-induced peripheral neuropathy [6]: able to protect against paclitaxel-induced peripheral neuropathy
